Patent publication US5866570A, “Treatment of vascular leakage and related syndrome such as septic shock by administration of metalloproteinase inhibitors” (Wisconsin Alumni Research Foundation, priority 1994, dated 1999)

Assays:
[1] = test system: MDA-MB-231 cells (human breast carcinoma); assay: in vitro invasion assay through matrigel (Transwell); assay type: cell-based; details: preliminary screen
Experimental: Razoxane, various bis(hydroxylated)(2,6-dioxopiperazine)s, and various hydrophobic analogs were tested in an in vitro assay for inhibition of tumor cell penetration of a reconstituted basement membrane, matrigel, isolated from the Englegbreth-Holm-Swarm (EHS) tumor (disclosed in Kleinman et al., Biochem. (1982), 24, 6188-6193) first described by Albini et al, Cancer Res. (1987) 47, 3234-3245. An 8 μm pore filter coated with matrigel separates a lower compartment containing a chemoattractant and an upper compartment containing the cells and test compound. In particular, the following compounds were tested: razoxane, (1α, 2α, 4α, 5α)-4,4'-(4,5-dihydroxy-1,2-cyclohexanediyl)bis(2,6-piperazinedione); (1α, 2α, 4β, 5β)-4,4'-(4,5-dihydroxy-1,2-cyclohexanediyl)bis(2,6-piperazinedione);(1β, 2α,4α,5α)-4,4'-(4,5-dihydroxy-1,2-cyclohexanediyl)bis(2,6-piperazinedione); (1β, 2α, 4α,5β)-4,4'-(4,5-dihydroxy-1,2-cyclohexanediyl)bis(2,6piperazinedione); (1α, 2β, 4α,5β)-4,4'-(4,5-dihydroxy-1,2cyclohexanediyl)bis(2,6-piperazinedione); N,N'-cyclohexane-1,2-diylbis[N(2-ethoxy-2-oxoethyl)]glycine; N,N'-4-cyclohexene-1,2-diylbis[N-(2-ethoxy-2-oxoethyl)-glycine ester; (3aα, 5β, 6β, 7aα)-4,4'-(hexahydro-2,2-dimethyl1,3-benzodioxole-5,6-diyl)bis(2,6-piperazinedione); (3aα, 5α, 6α, 7aα)-4,4'-(hexahydro-2,2-dimethyl-1,3-benzodioxole-5,6-diyl)bis(2,6- piperazinedione); (3aα, 5α, 6β, 7aα)-4,4'-(hexahydro-2,2-dimethyl-1,3-benzodioxole-5,6-diyl)bis-2,6- piperazinedione; (3aα, 5β, 6α, 7aβ)-4,4'-(hexahydro-2,2dimethyl-1,3-benzodioxole-5,6-diyl)bis(2,6-piperazinedione); and (3aα, 5α, 6β, 7aβ)-4,4'-(hexahydro-2,2-dimethyl-1,3-benzodioxole-5,6-diyl) bis(2,6piperazinedione). Metastatic cells are able to degrade the basement membrane protein barrier and migrate through the pores of the filter whereas non-metastatic cells remain on the upper surface. The cells that pass to the under side of the filter are then counted under a microscope. […] Variations of this assay have been used to correlate this in vitro invasion with metastatic potential in vivo (Albini et al. (Id.); Hendrix et al. Cancer Letters (1987); 38, 127-247; Repesh L. A., Invasion Metastasis (1989) 9, 192-208 to select for more highly invasive cells (Teranova et al., Proc. Nat. Acad. Sci., (1986), 83, 465, 464; Tullberg et al., Invasion Metastasis, (1989), 9, 13-26; Sefer et al., Biotechniques, (1990), 9, 324-331), and to test compounds for inhibition (Nakajima et al., Cancer Res. (1989), 49, 1698-1756).
This method has been improved to increase the number of assays which may be performed and analyzed per day. In particular, such improvement comprises the use of disposable Transwells (Costar) units described by Repesh et al., Invasion Metastasis, (1989), 9, 192-208, which consist of an 8 μm pore filter attached to an insert that fits in a 24 well culture plate. Matrigel concentration is titrated from zero to complete inhibition of motility of each invasive cell line used in the assay and for each batch of matrigel. The matrigel concentration which yields 50% or greater inhibition of motility in a 6 hr assay (usually from 15 to 50 μg of protein per filter) is chosen for determination of invasion. Motility of cells through the 8 μm filters is not by passive diffusion since the pore size is smaller than the cells, and is determined in the same chamber in the absence of matrigel. Motility is stimulated two-fold by the presence of fibroblast conditioned medium (3T3 cells) as a chemoattractant (data not shown). The cell lines used are HT-1080, a human fibrosarcoma, and MDA-MB-231, a human breast carcinoma (both available from the American Type Tissue Culture). These cell lines express both the 72 kD and the 92 kD collagenase type IV as determined by zymography (data not shown).
For inhibition studies, 5×10^5 cells are plated in 200 μl of DMEM+0.1% BSA+the inhibitor (or appropriate solvent control) into the upper chamber of the Transwell. […]

V-79A fibroblasts = details: tissue culture; cited from earlier work

Compound | inhibition of invasion [1] | effect on cell motility ([1]; no matrigel) | cytotoxic activity (V-79A fibroblasts)
CC1(C)O[C@H]2C[C@H](N3CC(=O)NC(=O)C3)[C@@H](N3CC(=O)NC(=O)C3)C[C@@H]2O1 (relative stereo) [Compound 80, (3aα, 5β, 6α, 7aβ)-4,4'-(hexahydro-2,2-dimethyl-1,3-benzodioxole-5,6-diyl)bis(2,6-piperazinedione)] | inhibit invasion | without inhibiting cell motility | 
CC(CN1CC(=O)NC(=O)C1)N1CC(=O)NC(=O)C1 (stereo not drawn) [razoxane] |  |  | has cytoxic activity
